pIC50: −log10 of the molar value. Counter-ions that a name gives are not always drawn.
What follows are compounds tested against Angiotensin-converting enzyme (assay: Concentration required to inhibit the activity of Angiotensin I converting enzyme by 50%).

| pIC50 | Compound |
| --- | --- |
| 8.00 | O=C(NC(Cc1ccc(OCc2ccccc2)cc1)C(=O)CCC(=O)N1CCC[C@H]1C(=O)O)c1ccccc1 (stereo not given in full) [1-[5-Benzoylamino-6-(4-benzyloxy-phenyl)-4-oxo-hexanoyl]-pyrrolidine-2-carboxylic acid] |
| 8.85 | O=C(NC(Cc1ccccc1)C(=O)CCC(=O)N1CCC[C@H]1C(=O)O)c1ccco1 (stereo not given in full) [1-{5-[(Furan-2-carbonyl)-amino]-4-oxo-6-phenyl-hexanoyl}-pyrrolidine-2-carboxylic acid] |
| 8.24 | O=C(NC(Cc1cccnc1)C(=O)CCC(=O)N1CCC[C@H]1C(=O)O)c1ccccc1 (stereo not given in full) [1-(5-Benzoylamino-4-oxo-6-pyridin-3-yl-hexanoyl)-pyrrolidine-2-carboxylic acid] |
| 8.85 | COc1ccc(CC(NC(=O)c2ccccc2)C(=O)CCC(=O)N2CCC[C@H]2C(=O)O)cc1OC (stereo not given in full) [1-[5-Benzoylamino-6-(3,4-dimethoxy-phenyl)-4-oxo-hexanoyl]-pyrrolidine-2-carboxylic acid] |
| 7.07 | O=C(NC(Cc1ccc(OCc2ccccc2)cc1)C(=O)CCC(=O)N1CCC[C@H]1C(=O)OCc1ccccc1)c1ccccc1 (stereo not given in full) [1-[5-Benzoylamino-6-(4-benzyloxy-phenyl)-4-oxo-hexanoyl]-pyrrolidine-2-carboxylic acid benzyl ester] |
| 5.80 | Cc1ccccc1C(=O)NC(Cc1ccccc1)C(=O)CCC(=O)N1CCC[C@H]1C(=O)OCc1ccccc1 (stereo not given in full) [1-[5-(2-Methyl-benzoylamino)-4-oxo-6-phenyl-hexanoyl]-pyrrolidine-2-carboxylic acid benzyl ester] |
| 6.82 | NC(=O)[C@@H]1CCCN1C(=O)CCC(=O)C(Cc1ccccc1)NC(=O)c1ccccc1 (stereo not given in full) [1-(5-Benzoylamino-4-oxo-6-phenyl-hexanoyl)-pyrrolidine-2-carboxylic acid amide] |
| 7.70 | O=C(CCC(=O)N1CCC[C@H]1C(=O)O)C(Cc1ccccc1)NC(=O)C1CCCO1 (stereo not given in full) [1-{4-Oxo-6-phenyl-5-[(tetrahydro-furan-2-carbonyl)-amino]-hexanoyl}-pyrrolidine-2-carboxylic acid] |
| 6.48 | CC(=O)NC(Cc1ccccc1)C(=O)CCC(=O)N1CCC[C@H]1C(=O)O (stereo not given in full) [1-(5-Acetylamino-4-oxo-6-phenyl-hexanoyl)-pyrrolidine-2-carboxylic acid] |
| 6.62 | O=C(NC(Cc1ccccc1)C(=O)CCC(=O)N1CCC[C@H]1C(=O)O)OCc1ccccc1 (stereo not given in full) [1-(5-Benzyloxycarbonylamino-4-oxo-6-phenyl-hexanoyl)-pyrrolidine-2-carboxylic acid] |
| 5.07 | CC(C)(C)OC(=O)[C@@H]1CCCN1C(=O)CCC(=O)C(Cc1ccc(OCc2ccccc2)cc1)NC(=O)c1ccccc1 (stereo not given in full) [1-[5-Benzoylamino-6-(4-benzyloxy-phenyl)-4-oxo-hexanoyl]-pyrrolidine-2-carboxylic acid tert-butyl ester] |
| 6.74 | O=C(CCC(=O)C(Cc1ccccc1)NC(=O)c1ccccc1)NC(Cc1ccccc1)C(=O)OCc1ccccc1 (stereo not given) [2-(5-Benzoylamino-4-oxo-6-phenyl-hexanoylamino)-3-phenyl-propionic acid benzyl ester] |
| 8.33 | O=C(NC(Cc1ccc(O)cc1)C(=O)CCC(=O)N1CCC[C@H]1C(=O)O)c1ccccc1 (stereo not given in full) [1-[5-Benzoylamino-6-(4-hydroxy-phenyl)-4-oxo-hexanoyl]-pyrrolidine-2-carboxylic acid] |
| 7.38 | O=C(NC(Cc1ccccc1)C(=O)CCCC(=O)N1CCC[C@H]1C(=O)O)c1ccccc1 (stereo not given in full) [1-(6-Benzoylamino-5-oxo-7-phenyl-heptanoyl)-pyrrolidine-2-carboxylic acid] |
| 7.82 | O=C(NC(Cc1cccnc1)C(=O)CCC(=O)N1CCC[C@H]1C(=O)OCc1ccccc1)c1ccccc1 (stereo not given in full) [1-(5-Benzoylamino-4-oxo-6-pyridin-3-yl-hexanoyl)-pyrrolidine-2-carboxylic acid benzyl ester] |
| 4.60 | NC(Cc1ccccc1)C(=O)CCC(=O)N1CCC[C@H]1C(=O)O (stereo not given in full) [1-(5-Amino-4-oxo-6-phenyl-hexanoyl)-pyrrolidine-2-carboxylic acid; hydrochloride] |
| 5.92 | O=C(NC(Cc1ccccc1)=C(CCC(=O)N1CCC[C@H]1C(=O)O)NO)c1ccccc1 [1-(5-Benzoylamino-4-hydroxyimino-6-phenyl-hexanoyl)-pyrrolidine-2-carboxylic acid] |
| 7.55 | O=C(CCC(=O)C(Cc1ccccc1)NC(=O)c1ccccc1)N[C@H](Cc1ccccc1)C(=O)O (stereo not given in full) [2-(5-Benzoylamino-4-oxo-6-phenyl-hexanoylamino)-3-phenyl-propionic acid] |
| 7.34 | Cc1ccccc1C(=O)NC(Cc1ccccc1)C(=O)CCC(=O)N1CCC[C@H]1C(=O)O (stereo not given in full) [1-[5-(2-Methyl-benzoylamino)-4-oxo-6-phenyl-hexanoyl]-pyrrolidine-2-carboxylic acid] |
| 6.52 | CC(NC(=O)c1ccccc1)C(=O)CCC(=O)N1CCC[C@H]1C(=O)O (stereo not given in full) [1-(5-Benzoylamino-4-oxo-hexanoyl)-pyrrolidine-2-carboxylic acid] |

— BindingDB's records for doi:10.1021/jm00140a010 (1982)
